In paper PMC11251039, “Harnessing cholesterol uptake of malaria parasites for therapeutic applications” (EMBO Molecular Medicine, 2024):
Where “and” joins values, the source holds several entries; their conditions need not be identical. Identical values can stand only once. Like-named read-outs stand apart in the source and are kept apart here.

Test system: asexual P. falciparum 3D7 wild-type parasites
Assay: P. falciparum asexual growth inhibition assay (SYBR Safe DNA replication)
Assay type: cell-based, Plasmodium falciparum
Set-up: Figure 5B dose-response source data (growth, replicate values): unit not given here
Experimental: P. falciparum asexual parasite assays commenced with ring-stage parasites at 1% parasitaemia and 1% haematocrit. 200 nM chloroquine (Sigma C6628) or artesunate (Sigma A3731) was used as a no-growth control. DNA replication (indicating growth) was measured at the specified time using SYBR Safe DNA Gel Stain (Invitrogen 33102) and a fluorescence microplate reader (Smilkstein et al, [2004]; Spry et al, [2013]). […]
Growth and Viability Inhibition Assays:
Plasmodium falciparum Growth Inhibition Assays:
P. falciparum parasites were maintained under routine culture conditions in red blood cells and RPMI 1640-Hepes with Glutamax, supplemented with 10 mM D-glucose, 480 μM hypoxanthine, 20 μg/mL gentamicin, 0.375% (w/v) AlbuMAXTM II (Thermo Fisher 11021029), and 2.5% v/v heat-inactivated human serum (17). Cultures were maintained at 37 °C […]
wildtype parasites except for the ring stage survival assay, as specified. Cultures were synchronised with 5% w/v D-sorbitol (18).
Growth inhibition was investigated according to methods described by Smilkstein et al. (19) with modifications by Spry et al. (20). Compounds or solvent controls (DMSO, ethanol, or ethyl acetate) were serially diluted 2-fold across flat-bottom 96-well plates. Culture media without compound was used as a negative control. 200 nM chloroquine (Sigma C6628) or artesunate (Sigma A3731) was used as a positive control to determine background fluorescence. The parasitaemia of a culture containing predominantly ring stage parasites was counted by Giemsa smear. The parasitaemia was adjusted to 1% by addition of fresh uRBCs and added to the plate at a final haematocrit of 1%, with 200 µL per well. The plates were incubated at 37 °C under humid microaerophilic conditions. After 24, 48, or 72 hours, the plates were transferred to a -18 °C freezer to stop the assay and lyse cells. Plates were thawed and lysate was mixed 1:1 with SYBR Safe DNA Gel Stain (Invitrogen 33102) (final concentration 1/10,000) diluted in lysis buffer (20 mM TRIS, 5 mM EDTA, 0.008% w/v Saponin, 0.08% w/v Triton-X 100, pH 7.5). Fluorescence was detected at 490 nm excitation/ 520 nm emission on a FLUOstar Optima fluorescence plate reader (BMG Labtech).

[1] = Plasmodium falciparum, 3D7, 72 h; read-out: IC50, P. falciparum asexual growth inhibition
[2] = Plasmodium falciparum, 3D7; 24 h, starting at ring stages; read-out: IC50, P. falciparum asexual growth inhibition

## CCN(CC)CCCC(C)Nc1ccnc2cc(Cl)ccc12 (centres unmarked) [Chloroquine, chloroquine, reference compound]
Plasmodium falciparum, 3D7, 24 h, read-out: IC50, P. falciparum asexual growth inhibition
  IC50: 10.9 nM
Plasmodium falciparum, 3D7, 48 h, read-out: IC50, P. falciparum asexual growth inhibition
  IC50: 9.9 nM
Plasmodium falciparum, 3D7, 72 h, read-out: IC50, P. falciparum asexual growth inhibition
  IC50: 9.7 nM

## CC(C)CCC[C@@H](C)[C@H]1CC[C@H]2[C@@H]3CC=C4C[C@@H](OC(=O)CCC(=O)OC(C)C)CC[C@]4(C)[C@H]3CC[C@]12C [C-3-link]
0.781250000 uM, 24 h, replicate values, source data Fig. 2B; listed as GGA3
  P. falciparum asexual growth, percentage of control: 138.2% and 69.67% and 108.2% and 127.5% and 114.2% and 69.05% and 145.4% and 89.72% and 93.86%
1.562500000 uM, 24 h, replicate values, source data Fig. 2B; listed as GGA3
  P. falciparum asexual growth, percentage of control: 130.3% and 104.4% and 98.52% and 110.7% and 113.3% and 87.62% and 145.2% and 92.88% and 49.26%
3.125000000 uM, 24 h, replicate values, source data Fig. 2B; listed as GGA3
  P. falciparum asexual growth, percentage of control: 128.1% and 110.6% (2×) and 120.7% and 130.3% and 119.8% and 103.2% and 132.9% and 71.34%
6.250000000 uM, 24 h, replicate values, source data Fig. 2B; listed as GGA3
  P. falciparum asexual growth, percentage of control: 93.75% and 68.17% and 50.04% and 136.5% and 109.3% and 87.77% and 130% and 101.8% and 92.88%
12.500000000 uM, 24 h, replicate values, source data Fig. 2B; listed as GGA3
  P. falciparum asexual growth, percentage of control: 119.7% and 70.39% and 47.65% and 137.3% and 124.9% and 51.68% and 112.4% and 101.8% and 77.92%
25.000000000 uM, 24 h, replicate values, source data Fig. 2B; listed as GGA3
  P. falciparum asexual growth, percentage of control: 123.1% and 134.3% and 128.6% and 112.3% and 97.18% and 95.88% and 133.7% and 5.942% and 77.98%
50.000000000 uM, 24 h, replicate values, source data Fig. 2B; listed as GGA3
  P. falciparum asexual growth, percentage of control: 105.1% and 133.6% and 70.07% and 116% and 103% and 74.44% and 77.73% and 97.2% and 107.5%
100.000000000 uM, 24 h, replicate values, source data Fig. 2B; listed as GGA3
  P. falciparum asexual growth, percentage of control: 147.4% and 120% and 109% and 100.9% and 90.73% and 81.6% and 95.19% and 71.65% and 81.81%
200.000000000 uM, 24 h, replicate values, source data Fig. 2B; listed as GGA3
  P. falciparum asexual growth, percentage of control: 125% and 120.9% and 88.35% and 101.9% and 79.2% and 19.96% and 163.3% and 103.1% and 105.4%
24 h
  Inhibition of parasite growth: no inhibition of parasite growth up to 200 µM
[1]
  IC50: > 200000 nM
[2]
  IC50: > 200000 nM

## COc1cc(NC(C)CCCNC(=O)CCC(=O)O[C@H]2CC[C@@]3(C)C(=CC[C@H]4[C@@H]5CC[C@H]([C@H](C)CCCC(C)C)[C@@]5(C)CC[C@@H]43)C2)c2ncccc2c1 (some centres unmarked) [C-3-PQ]
0.390625000 uM, 24 h, replicate values, source data Fig. 2B; listed as BC64C
  P. falciparum asexual growth, percentage of control: 131.7% and 66.76% and 95.56% and 108.4% and 112% and 85% and 101.8% and 112.2% and 92.84%
0.781250000 uM, 24 h, replicate values, source data Fig. 2B; listed as BC64C
  P. falciparum asexual growth, percentage of control: 150.2% and 111.9% and 88.57% and 84.46% and 114.9% and 73.34% and 95.38% and 91.75% and 80.98%
1.562500000 uM, 24 h, replicate values, source data Fig. 2B; listed as BC64C
  P. falciparum asexual growth, percentage of control: 126.1% and 129.8% and 105.9% and 128.7% and 121.9% and 90.74% and 123.6% and 79.12% and 103.6%
3.125000000 uM, 24 h, replicate values, source data Fig. 2B; listed as BC64C
  P. falciparum asexual growth, percentage of control: 126.5% and 121.8% and 108.8% and 133% and 55.06% and 86.31% and 120.7% and 105.6% and 95.15%
6.250000000 uM, 24 h, replicate values, source data Fig. 2B; listed as BC64C
  P. falciparum asexual growth, percentage of control: 133.8% and 98.67% and 102.2% and 109% and 94.05% and 103.7% and 108.1% and 76.85% and 81.21%
12.500000000 uM, 24 h, replicate values, source data Fig. 2B; listed as BC64C
  P. falciparum asexual growth, percentage of control: 157.5% and 116.3% and 102.8% and 135.3% and 108.6% and 85.91% and 111.9% and 81.39% and 66.81%
25.000000000 uM, 24 h, replicate values, source data Fig. 2B; listed as BC64C
  P. falciparum asexual growth, percentage of control: 149.9% and 129.1% and 105.1% and 150.2% and 115.2% and 49.33% and 125.1% and 71.79% and 57.24%
50.000000000 uM, 24 h, replicate values, source data Fig. 2B; listed as BC64C
  P. falciparum asexual growth, percentage of control: 150.4% and 131.3% and 98.75% and 124.5% and 117.8% and 89.9% and 146.3% and 135.4% and 89.26%
100.000000000 uM, 24 h, replicate values, source data Fig. 2B; listed as BC64C
  P. falciparum asexual growth, percentage of control: 78.34% and 90.49% and 98.72% and 114.4% and 78.89% and 75.44% and 171.9% and 124.7% and 104.9%
24 h
  Inhibition of parasite growth: no inhibition of parasite growth up to 100 µM
[1]
  IC50: > 200000 nM
[2]
  IC50: > 200000 nM

## CC(C)CCC[C@@H](C)[C@H]1CC[C@H]2[C@@H]3CC=C4C[C@@H](O)CC[C@]4(C)[C@H]3CC[C@]12C [Cholesterol, cholesterol]
Concentration 0.1953125 uM; individual replicates
  Figure 5B dose-response source data (growth, replicate values): 97.65 and 98.85 and 95.16 and 99.46 and 98.26 and 98.24 and 102.6 and 96.06 and 94.45
Concentration 0.390625 uM; individual replicates
  Figure 5B dose-response source data (growth, replicate values): 95.8 and 101 and 95.94 and 100.9 and 102.2 and 97.7 and 93.65 and 98.46 and 98.54 and 95.82 and 88.53 and 95.33 and 96.33 and 97.81 and 92.68
Concentration 0.78125 uM; individual replicates
  Figure 5B dose-response source data (growth, replicate values): 99.57 and 96.48 and 97.66 and 98.24 and 100.6 and 107.5 (2×) and 107.4 and 98.35 and 96.07 and 96.59 and 98.18 and 96.9 and 98.19 and 100.3 and 96.94 and 95.15 and 100.1 and 95.95 and 95.21 and 98.02 and 100 and 96.51
Concentration 1.5625 uM; individual replicates
  Figure 5B dose-response source data (growth, replicate values): 98.13 and 98.43 and 98.36 and 100.5 and 96.82 and 110.3 and 108.8 and 107.2 and 96.68 and 92.68 and 85.1 and 96.36 and 98.17 and 96.8 and 101.5 and 98.35 and 94.77 and 99.77 and 99.63 and 99.09 and 97.58 and 93.8 and 94.68
Concentration 3.125 uM; individual replicates
  Figure 5B dose-response source data (growth, replicate values): 99.65 and 95.37 and 96.75 and 101.4 and 107.2 and 106.1 and 106.5 and 104.9 and 98.31 and 99.02 and 98.46 and 95.92 and 100.7 and 98.47 and 104.4 and 98.86 and 101.6 and 91.05 and 95.88 and 95.01 and 101.3 and 96.56 and 97.39
Concentration 200 uM; individual replicates
  Figure 5B dose-response source data (growth, replicate values): 102.2 and 101.3 and 99.63
Concentration 400 uM; individual replicates
  Figure 5B dose-response source data (growth, replicate values): 106.3 and 99.95 and 99.03 and 90.17
[1]
  IC50: > 400000 nM
